The values below come from patent US6552080B1, “Fungicidal compounds having a fluorovinyl-or fluoropropenyl-oxyphenyloxime moiety and process for the preparation thereof” (Korea Research Institute of Chemical Technology, priority 1999, dated 2003).

Each structure is given as a SMILES string. Where two headings read alike, the source gives them in different places.

The subject of assay [1] is Puccinia recondita. Briefly: Fungicidal activity against Wheat Leaf Rust (WLR) disease. To be noted: for WLR (Fungicidal Activities, C.V.): Wheat Leaf Rust. The class given is in vivo.
Assay [2] concerns Erysiphae graminis. As to the kind of experiment: Fungicidal activity against Barley Powdery Mildew (BPM) disease. It counts as in vivo. To be noted: for BPM (Fungicidal Activities, C.V.): Barley Powdery Mildew.
In assay [3] the test system is Phytophthora infestans. The class given is in vivo. The settings on record: for TLB (Fungicidal Activities, C.V.): Tomato Late Blight.
In assay [4] the test system is Rhizoctonia solani AG-1. As to the kind of experiment: Fungicidal activity against Rice Sheath Blight (RSB) disease. The settings on record: for RSB (Fungicidal Activities, C.V.): Rice Sheath Blight.
For assay [5], the system named is Pyricularia oryzae Carvara KA301. The class given is in vivo. To be noted: for RCV (Fungicidal Activities, C.V.): Rice Blast.
The test system of assay [6] is Botrytis cinerae. Briefly: Fungicidal activity against Cucumber Gray Mold Rot (CGM) disease. It counts as in vivo. The settings on record: for CGM (Fungicidal Activities, C.V.): Cucumber Gray Mold Rot, concentration 50 ppm. The protocol:
Botrytis cinerae, which was isolated from cucumber infected thereby, was inoculated on a PDA agar medium and cultured under a 12L/12D cycle at 25° C. for 15 days to form spore. The spores were scraped, filtered through a gauze and then suspended in potato dextrose liquid medium at a concentration of 1×10^6 spore/ml. The spore suspension was sprayed on a cucumber plant having one leaf. The cucumber plant was held in a humidified room at 20° C. for 3 days. L.A. on a leaf was measured to calculate an C.V.

As for `CNC(=O)C(=NOC)c1ccccc1CON=Cc1cccc(OC(F)=Cc2ccc(F)cc2)c1` [Compound 37], the “WLR (Fungicidal Activities, C.V.)” value in assay [1] (concentration 2 ppm) was 37%; in assay [1] (concentration 50 ppm), 98%. Moreover, the figures for the “BPM (Fungicidal Activities, C.V.)” value in assay [2] (concentration 2 ppm) and in assay [2] (concentration 50 ppm) were 42% and 100%, respectively. Also, the “TLB (Fungicidal Activities, C.V.)” value in assay [3] (concentration 50 ppm) is listed as 0%. In assay [4] (concentration 50 ppm), the “RSB (Fungicidal Activities, C.V.)” value worked out at 29%. Moreover, the “RCV (Fungicidal Activities, C.V.)” value in assay [5] (concentration 2 ppm) was 98%; in assay [5] (concentration 50 ppm), 100%. For the same molecule, the “CGM (Fungicidal Activities, C.V.)” value in assay [6] is given as 0%.
For the molecule `CNC(=O)C(=NOC)c1ccccc1CON=Cc1cccc(OC(F)=Cc2cccc(OC)c2)c1` [Compound 35], the “WLR (Fungicidal Activities, C.V.)” value in assay [1] (concentration 2 ppm) is 83%; in assay [1] (concentration 50 ppm), 97%. Moreover, the “BPM (Fungicidal Activities, C.V.)” value in assay [2] (concentration 2 ppm) amounted to 0%; in assay [2] (concentration 50 ppm), 100%. Moreover, the “TLB (Fungicidal Activities, C.V.)” value in assay [3] (concentration 50 ppm) amounted to 0%. Besides, the “RSB (Fungicidal Activities, C.V.)” value in assay [4] (concentration 50 ppm) came out at 52%. Also, the “RCV (Fungicidal Activities, C.V.)” value was found to be 97% in assay [5] (concentration 2 ppm) and 100% in assay [5] (concentration 50 ppm). For the same molecule, the “CGM (Fungicidal Activities, C.V.)” value in assay [6] was 0%.
Consider `CNC(=O)C(=COC)c1ccccc1CON=C(C)c1cccc(OC(F)=Cc2ccc(OC)cc2)c1` [Compound 60], for which the “WLR (Fungicidal Activities, C.V.)” value in assay [1] (concentration 50 ppm) was found to be 66%. Moreover, the “BPM (Fungicidal Activities, C.V.)” value in assay [2] (concentration 50 ppm) is reported as 100%. Moreover, the “TLB (Fungicidal Activities, C.V.)” value in assay [3] (concentration 50 ppm) is recorded as 0%. Further, the “RSB (Fungicidal Activities, C.V.)” value in assay [4] (concentration 50 ppm) is 29%. Besides, the “RCV (Fungicidal Activities, C.V.)” value in assay [5] (concentration 50 ppm) was 100%. For the same molecule, the “CGM (Fungicidal Activities, C.V.)” value in assay [6] was 8%.
`COC=C(C(=O)OC)c1ccccc1CON=C(C)c1cccc(OC(F)=C(c2ccc(Cl)cc2)C(F)(F)F)c1` [Compound 163]: the “Fungicidal Activities WLR (C.V.)” value in assay [1] (2 ppm) is on record as 86%; in assay [1] (10 ppm), 98%; in assay [1] (50 ppm), 100%. The “Fungicidal Activities BPM (C.V.)” value came out at 94% in assay [2] (2 ppm), 100% in assay [2] (10 ppm) and 100% in assay [2] (50 ppm). The “Fungicidal Activities TLB (C.V.)” value in assay [3] (50 ppm) turned out to be 12%. In addition, the “Fungicidal Activities RSB (C.V.)” value worked out at 40% in assay [4] (2 ppm), 40% in assay [4] (10 ppm) and 92% in assay [4] (50 ppm). Further, the “Fungicidal Activities RCV (C.V.)” value in assay [5] (2 ppm) was found to be 58%; in assay [5] (10 ppm), 86%; in assay [5] (50 ppm), 90%. Besides, in assay [6] (50 ppm), the “Fungicidal Activities CGM (C.V.)” value amounted to 51%.
As to `COC=C(C(=O)OC)c1ccccc1CON=C(C)c1cccc(OC(F)=Cc2ccc3ccccc3c2)c1` [Compound 56], the “WLR (Fungicidal Activities, C.V.)” value stood at 95% in assay [1] (concentration 2 ppm), 100% in assay [1] (concentration 10 ppm) and 100% in assay [1] (concentration 50 ppm). Besides, the “BPM (Fungicidal Activities, C.V.)” value in assay [2] (concentration 2 ppm), in assay [2] (concentration 10 ppm) and in assay [2] (concentration 50 ppm) was 100% throughout. Further, in assay [3] (concentration 50 ppm), the “TLB (Fungicidal Activities, C.V.)” value is 57%. In assay [4] (concentration 50 ppm), the “RSB (Fungicidal Activities, C.V.)” value was determined as 70%. Moreover, the “RCV (Fungicidal Activities, C.V.)” value in assay [5] (concentration 2 ppm) came out at 25%; in assay [5] (concentration 10 ppm) it was 80%; in assay [5] (concentration 50 ppm), 95%. For the same molecule, the “CGM (Fungicidal Activities, C.V.)” value in assay [6] is recorded as 5%.
For `COC=C(C(=O)OC)c1ccccc1CON=C(c1cccc(OC(F)=Cc2ccc3c(c2)OCO3)c1)C(F)(F)F` [Compound 94], the “WLR (Fungicidal Activities, C.V.)” value in assay [1] (concentration 2 ppm) was determined as 93%; in assay [1] (concentration 10 ppm), 96%; in assay [1] (concentration 50 ppm), 100%. Besides, the “BPM (Fungicidal Activities, C.V.)” value in assay [2] (concentration 2 ppm), in assay [2] (concentration 10 ppm) and in assay [2] (concentration 50 ppm) was 100% in each case. Further, the “TLB (Fungicidal Activities, C.V.)” value in assay [3] (concentration 50 ppm) worked out at 68%. Further, in assay [4] (concentration 50 ppm), the “RSB (Fungicidal Activities, C.V.)” value turned out to be 60%. In addition, the “RCV (Fungicidal Activities, C.V.)” value was 99% in assay [5] (concentration 2 ppm), 100% in assay [5] (concentration 10 ppm) and 100% in assay [5] (concentration 50 ppm). Besides, the “CGM (Fungicidal Activities, C.V.)” value in assay [6] is 54%.
With `CON=C(C(=O)OC)c1ccccc1CON=Cc1cccc(OC(F)=Cc2ccc(C)cc2)c1` [Compound 25], the “WLR (Fungicidal Activities, C.V.)” value in assay [1] (concentration 2 ppm) is listed as 95%; in assay [1] (concentration 50 ppm) it was 100%. Besides, the “BPM (Fungicidal Activities, C.V.)” value came out at 93% in assay [2] (concentration 2 ppm) and 100% in assay [2] (concentration 50 ppm). Besides, the “TLB (Fungicidal Activities, C.V.)” value in assay [3] (concentration 2 ppm) came to 75%; in assay [3] (concentration 50 ppm), 99%. Besides, the figures for the “RSB (Fungicidal Activities, C.V.)” value in assay [4] (concentration 2 ppm) and in assay [4] (concentration 50 ppm) were 15% and 40%, respectively. In addition, the figures for the “RCV (Fungicidal Activities, C.V.)” value in assay [5] (concentration 2 ppm) and in assay [5] (concentration 50 ppm) were 66% and 98%, respectively. For the same molecule, the “CGM (Fungicidal Activities, C.V.)” value in assay [6] came to 9%.
